Test results published in US20230172207A1 (BASF SE, priority 2020, published 2023).

Columns and labels:
[1] = tested on: Pyricularia oryzae; assay: microbe, parasite or virus in culture; assay type: cell-based; conditions: Pyricularia oryzae, 168 h, read-out: Fungal growth (%) PYRIOR
[2] = tested on: Leptosphaeria nodorum; assay: Micro titer plate test against Leptosphaeria nodorum causing wheat leaf spots (LEPTNO); assay type: cell-based; conditions: 0.063 ppm; for activity at 0.063 ppm: Parastagonospora nodorum, 168 h, read-out: Fungal growth (%) LEPTNO
[3] = tested on: Cercospora sojina; assay: microbe, parasite or virus in culture; assay type: cell-based; conditions: 168 h, read-out: Fungal growth (%) CERCSO
[4] = tested on: Phakopsora pachyrhizi (F129L); assay: Protective control of soybean rust on soybeans (PHAKPA P2); assay type: in vivo; conditions: for % PHAKPA (F129L) Disease level, P2 at 4 ppm: protective P2, 4 ppm; for % PHAKPA (F129L) Disease level, P2 at 16 ppm: protective P2, 16 ppm
[5] = tested on: Phakopsora pachyrhizi (F129L); assay: Protective control of soybean rust on soybeans (PHAKPA P6); assay type: in vivo; conditions: for % PHAKPA (F129L) Disease level, P6 at 16 ppm: protective P6, 16 ppm; for % PHAKPA (F129L) Disease level, P6 at 4 ppm: protective P6, 4 ppm
[6] = tested on: Alternaria solani (F129L); assay: Micro titer plate test against Alternaria solani causing early blight (ALTESO F129L); assay type: cell-based; conditions: 0.016 ppm, relative growth vs compound-free control (100%), 7 days
[7] = tested on: Alternaria solani (wt); assay: microbe, parasite or virus in culture; assay type: cell-based; conditions: Alternaria solani, 168 h, read-out: Fungal growth (%) ALTESO wt
[8] = tested on: Pyrenophora teres (wt); assay: Micro titer plate test against Pyrenophora teres causing net blotch on barley (PYRNTE wt); assay type: cell-based; conditions: 0.25 ppm
[9] = tested on: Septoria tritici; assay: Micro titer plate test against Septoria tritici causing leaf blotch on wheat (SEPTTR); assay type: cell-based; conditions: 0.25 ppm
[10] = tested on: Colletotrichum orbiculare; assay: Micro titer plate test against Colletotrichum orbiculare causing anthracnose (COLLLA); assay type: cell-based; conditions: 0.063 ppm
[11] = relative growth vs compound-free control (100%), 7 days
[12] = protective, inoculation six days after spraying, % diseased leaf area
[13] = protective, inoculation 2 days after spraying, % diseased leaf area

CO/N=C(/C(=O)OC)c1cccc(C)c1CO/N=C(\OC)c1cccc(OC(F)(F)F)c1 [reference compound]
activity at 0.016 ppm [1]: 58%
activity at 0.063 ppm [2, 11]: 100%
activity at 4 ppm [3]: 56%

CO/N=C(/C(=O)OC)c1cccc(C)c1CO/N=C(\SC)c1cccc(Cl)c1 [drawing 984, reference compound]
% PHAKPA (F129L) Disease level, P2 at 4 ppm [4]: 47%
% PHAKPA (F129L) Disease level, P6 at 16 ppm [5]: 18%

CNC(=O)/C(=N/OC)c1cccc(C)c1CO/N=C(\C)c1cccc(C(F)(F)F)c1 [compound 8]
PHAKPA (F129L) Disease level (%) P6 at 4 ppm ([5]; 4 ppm, protective, inoculation six days after spraying, % diseased leaf area): 13%
% PHAKPA (F129L) Disease level, P6 at 4 ppm [5]: 1%
Fungal growth (%) LEPTNO [2, 11]: 70%
Fungal growth (%) ALTESO F129L ([6]; listed as Ex. 8): 52%

CO/N=C(/C(=O)OC)c1cccc(C)c1CO/N=C(\OC)c1cccc(C)c1 [reference compound]
% PHAKPA (F129L) Disease level, P2 at 4 ppm [4]: 83%
% PHAKPA (F129L) Disease level, P6 at 16 ppm [5]: 57%

CO/N=C(/C(=O)OC)c1cccc(C)c1CO/N=C(\C)c1cccc(C)c1 [drawing 956, reference compound]
activity at 0.063 ppm [2, 11]: 65%
activity at 0.016 ppm [7]: 93%
activity at 0.016 ppm ([6]; Alternaria solani, 168 h, read-out: Fungal growth (%) ALTESO F129L): 81%
activity at 0.25 ppm ([8]; Pyrenophora teres, 168 h, relative growth vs compound-free control (100%), 7 days, read-out: Fungal growth (%) PYRNTE wt): 53%
activity at 4 ppm [3]: 67%

CNC(=O)/C(=N/OC)c1cccc(C)c1CO/N=C(/c1cccc(C)c1)C1CC1 [drawing 977, reference compound]
% PHAKPA (F129L) Disease level, P2 at 4 ppm [4]: 67%
% PHAKPA (F129L) Disease level, P6 at 16 ppm [5]: 67%

CNC(=O)/C(=N/OC)c1cccc(C)c1CO/N=C(\SC)c1cccc(C(F)(F)F)c1 [reference compound]
% PHAKPA (F129L) Disease level, P6 at 4 ppm [5]: 43%

CO/N=C(/C(=O)OC)c1cccc(C)c1CO/N=C(\C)c1cccc(Cl)c1 [compound 153]
% PHAKPA (F129L) Disease level, P2 at 4 ppm [4]: 19%
PHAKPA (F129L) Disease level (%) P6 at 16 ppm [5, 12]: 1%
% PHAKPA (F129L) Disease level, P6 at 16 ppm [5]: 5%
Fungal growth (%) SEPTTR [9]: 0%
Fungal growth (%) COLLLA [10]: 55%
Fungal growth (%) LEPTNO [2]: 55%
Fungal growth (%) PYRNTE wt [8]: 31%

CO/N=C(/C(=O)OC)c1cccc(C)c1CO/N=C(\C)c1cccc(C)c1 [compound 76]
% PHAKPA (F129L) Disease level, P2 at 4 ppm [4]: 35%
PHAKPA (F129L) Disease level (%) P6 at 16 ppm [5, 12]: 0%
% PHAKPA (F129L) Disease level, P6 at 16 ppm [5]: 4%
Fungal growth (%) SEPTTR [9, 11]: 0%

CNC(=O)/C(=N/OC)c1cccc(C)c1CO/N=C(\OC)c1cccc(C)c1 [drawing 976, reference compound]
% PHAKPA (F129L) Disease level, P6 at 16 ppm [5]: 45%

CO/N=C(/C(=O)OC)c1cccc(C)c1CO/N=C(/c1cccc(Cl)c1)C1CC1 [drawing 963]
Fungal growth (%) SEPTTR [9]: 39%

C=Cc1cccc(/C(=N\OC)C(=O)NC)c1CO/N=C(\C)c1ccccc1 [compound 400]
% PHAKPA (F129L) Disease level, P2 at 4 ppm [4]: 2%
% PHAKPA (F129L) Disease level, P2 at 16 ppm [4]: 0%
% PHAKPA (F129L) Disease level, P6 at 4 ppm [5]: 8%
% PHAKPA (F129L) Disease level, P6 at 16 ppm [5]: 0%

CNC(=O)/C(=N/OC)c1cccc(C)c1CO/N=C(\C)c1cccc(Cl)c1 [compound 157]
PHAKPA (F129L) Disease level (%) P2 at 4 ppm ([4]; 4 ppm, protective, inoculation 2 days after spraying, % diseased leaf area): 0%
% PHAKPA (F129L) Disease level, P2 at 4 ppm [4]: 1%
% PHAKPA (F129L) Disease level, P6 at 16 ppm [5]: 1%
Fungal growth (%) SEPTTR [9]: 20%
Fungal growth (%) COLLLA [10]: 63%
Fungal growth (%) PYRNTE wt [8]: 54%

CO/N=C(/C(=O)OC)c1cccc(C)c1CO/N=C(\OC)c1cccc(C(F)(F)F)c1 [reference compound]
% PHAKPA (F129L) Disease level, P6 at 16 ppm [5]: 23%

CO/N=C(/C(=O)OC)c1cccc(C)c1CO/N=C(\SC)c1cccc(C)c1 [drawing 952]
Fungal growth (%) SEPTTR [9, 11]: 61%

CO/N=C(/C(=O)OC)c1cccc(C)c1CO/N=C(/c1cccc(C)c1)C1CC1 [drawing 953]
Fungal growth (%) SEPTTR [9, 11]: 89%

CNC(=O)/C(=N/OC)c1cccc(C)c1CO/N=C(\SC)c1cccc(Cl)c1 [drawing 981, reference compound]
% PHAKPA (F129L) Disease level, P2 at 4 ppm [4]: 20%
% PHAKPA (F129L) Disease level, P6 at 16 ppm [5]: 9%

CNC(=O)/C(=N/OC)c1cccc(C)c1CO/N=C(\C)c1cccc(C)c1 [compound 77]
Fungal growth (%) SEPTTR [9]: 49%
Fungal growth (%) COLLLA [10]: 39%

CO/N=C(/C(=O)OC)c1cccc(C)c1CO/N=C(\C)c1cccc(C(F)(F)F)c1 [compound 9]
PHAKPA (F129L) Disease level (%) P6 at 16 ppm [5, 12]: 4%
% PHAKPA (F129L) Disease level, P6 at 16 ppm [5]: 1%

CNC(=O)/C(=N/OC)c1cccc(C)c1CO/N=C(/c1cccc(C)c1)C1CC1 [drawing 960]
Fungal growth (%) SEPTTR [9]: 87%

CO/N=C(/C(=O)OC)c1cccc(C)c1CO/N=C(\SC)c1cccc(Cl)c1 [drawing 962]
Fungal growth (%) SEPTTR [9]: 39%

CO/N=C(/C(=O)OC)c1cccc(C)c1CO/N=C(\C)c1cccc(OC(F)(F)F)c1 [compound 28]
PHAKPA (F129L) Disease level (%) P2 at 16 ppm [4, 13]: 30%
% PHAKPA (F129L) Disease level, P2 at 16 ppm ([4]; soybean rust F129L): 0%
PHAKPA (F129L) Disease level (%) P6 at 16 ppm [5, 12]: 18%
% PHAKPA (F129L) Disease level, P6 at 16 ppm ([5]; soybean rust F129L): 0%

CO/N=C(/C(=O)OC)c1cccc(C)c1CO/N=C(\SC)c1cccc(C)c1 [drawing 974, reference compound]
% PHAKPA (F129L) Disease level, P2 at 4 ppm [4]: 60%
% PHAKPA (F129L) Disease level, P6 at 16 ppm [5]: 30%

CNC(=O)/C(=N/OC)c1cccc(C)c1CO/N=C(\C)c1ccccc1C [compound 127]
% PHAKPA (F129L) Disease level, P2 at 4 ppm ([4]; soybean rust F129L): 90%
% PHAKPA (F129L) Disease level, P2 at 16 ppm ([4]; soybean rust F129L): 44%
% PHAKPA (F129L) Disease level, P6 at 4 ppm ([5]; soybean rust F129L): 93%
% PHAKPA (F129L) Disease level, P6 at 16 ppm ([5]; soybean rust F129L): 62%

CNC(=O)/C(=N/OC)c1cccc(C)c1CO/N=C(\C)c1c(Cl)cc(Cl)cc1OC(F)(F)F [compound 428]
% PHAKPA (F129L) Disease level, P2 at 4 ppm [4]: 70%
% PHAKPA (F129L) Disease level, P2 at 16 ppm [4]: 11%
% PHAKPA (F129L) Disease level, P6 at 4 ppm [5]: 83%
% PHAKPA (F129L) Disease level, P6 at 16 ppm [5]: 20%

CNC(=O)/C(=N/OC)c1cccc(C)c1CO/N=C(\CC(F)(F)F)c1ccc(F)cc1C [compound 394]
% PHAKPA (F129L) Disease level, P2 at 4 ppm [4]: 9%
% PHAKPA (F129L) Disease level, P2 at 16 ppm [4]: 3%
% PHAKPA (F129L) Disease level, P6 at 4 ppm [5]: 12%
% PHAKPA (F129L) Disease level, P6 at 16 ppm [5]: 2%

CNC(=O)/C(=N/OC)c1cccc(C)c1CO/N=C(\OC)c1cccc(C)c1 [drawing 959]
Fungal growth (%) SEPTTR [9]: 100%

CO/N=C(/C(=O)OC)c1cccc(C)c1CO/N=C(\C)c1ccccc1F [Ex. 1]
PHAKPA (F129L) Disease level (%) P2 at 16 ppm [4, 13]: 28%
% PHAKPA (F129L) Disease level, P2 at 4 ppm ([4]; soybean rust F129L): 80%
% PHAKPA (F129L) Disease level, P2 at 16 ppm ([4]; soybean rust F129L): 27%
PHAKPA (F129L) Disease level (%) P6 at 16 ppm [5, 12]: 47%
% PHAKPA (F129L) Disease level, P6 at 4 ppm ([5]; soybean rust F129L): 90%
% PHAKPA (F129L) Disease level, P6 at 16 ppm ([5]; soybean rust F129L): 56%

CO/N=C(/C(=O)OC)c1cccc(C)c1CO/N=C(/c1cccc(C)c1)C1CC1 [drawing 973, reference compound]
% PHAKPA (F129L) Disease level, P2 at 4 ppm [4]: 80%
% PHAKPA (F129L) Disease level, P6 at 16 ppm [5]: 37%

CNC(=O)/C(=N/OC)c1cccc(C)c1CO/N=C(\SC)c1cccc(Cl)c1 [drawing 968]
Fungal growth (%) SEPTTR [9]: 59%

CO/N=C(/C(=O)OC)c1cccc(C)c1CO/N=C(/c1cccc(Cl)c1)C1CC1 [drawing 983, reference compound]
% PHAKPA (F129L) Disease level, P2 at 4 ppm [4]: 83%
% PHAKPA (F129L) Disease level, P6 at 16 ppm [5]: 87%

CNC(=O)/C(=N/OC)c1cccc(C)c1CO/N=C(\OC)c1cccc(C(F)(F)F)c1
Fungal growth (%) SEPTTR [9, 11]: 77%
